# Laboratory results as given in patent US20130131059A1, “METHOD FOR TREATING OPHTHALMIC DISEASES USING KINASE INHIBITOR COMPOUNDS IN PRODRUG FORMS” (INSPIRE PHARMACEUTICALS, INC., priority 2010, published 2013).
# Read-outs that look alike come from different tables or passages of the source.
# Tests used:
# ROCK1 = molecular target: T1, ROCK1 (Homo sapiens, UniProt Q13464); assay: Rho kinase inhibition assay (IMAP fluorescence polarization), ROCK1; type: biochemical
# T1 construct: purchased Upstate/Chemicon 14-601
# T1 sequence (Q13464 whole entry): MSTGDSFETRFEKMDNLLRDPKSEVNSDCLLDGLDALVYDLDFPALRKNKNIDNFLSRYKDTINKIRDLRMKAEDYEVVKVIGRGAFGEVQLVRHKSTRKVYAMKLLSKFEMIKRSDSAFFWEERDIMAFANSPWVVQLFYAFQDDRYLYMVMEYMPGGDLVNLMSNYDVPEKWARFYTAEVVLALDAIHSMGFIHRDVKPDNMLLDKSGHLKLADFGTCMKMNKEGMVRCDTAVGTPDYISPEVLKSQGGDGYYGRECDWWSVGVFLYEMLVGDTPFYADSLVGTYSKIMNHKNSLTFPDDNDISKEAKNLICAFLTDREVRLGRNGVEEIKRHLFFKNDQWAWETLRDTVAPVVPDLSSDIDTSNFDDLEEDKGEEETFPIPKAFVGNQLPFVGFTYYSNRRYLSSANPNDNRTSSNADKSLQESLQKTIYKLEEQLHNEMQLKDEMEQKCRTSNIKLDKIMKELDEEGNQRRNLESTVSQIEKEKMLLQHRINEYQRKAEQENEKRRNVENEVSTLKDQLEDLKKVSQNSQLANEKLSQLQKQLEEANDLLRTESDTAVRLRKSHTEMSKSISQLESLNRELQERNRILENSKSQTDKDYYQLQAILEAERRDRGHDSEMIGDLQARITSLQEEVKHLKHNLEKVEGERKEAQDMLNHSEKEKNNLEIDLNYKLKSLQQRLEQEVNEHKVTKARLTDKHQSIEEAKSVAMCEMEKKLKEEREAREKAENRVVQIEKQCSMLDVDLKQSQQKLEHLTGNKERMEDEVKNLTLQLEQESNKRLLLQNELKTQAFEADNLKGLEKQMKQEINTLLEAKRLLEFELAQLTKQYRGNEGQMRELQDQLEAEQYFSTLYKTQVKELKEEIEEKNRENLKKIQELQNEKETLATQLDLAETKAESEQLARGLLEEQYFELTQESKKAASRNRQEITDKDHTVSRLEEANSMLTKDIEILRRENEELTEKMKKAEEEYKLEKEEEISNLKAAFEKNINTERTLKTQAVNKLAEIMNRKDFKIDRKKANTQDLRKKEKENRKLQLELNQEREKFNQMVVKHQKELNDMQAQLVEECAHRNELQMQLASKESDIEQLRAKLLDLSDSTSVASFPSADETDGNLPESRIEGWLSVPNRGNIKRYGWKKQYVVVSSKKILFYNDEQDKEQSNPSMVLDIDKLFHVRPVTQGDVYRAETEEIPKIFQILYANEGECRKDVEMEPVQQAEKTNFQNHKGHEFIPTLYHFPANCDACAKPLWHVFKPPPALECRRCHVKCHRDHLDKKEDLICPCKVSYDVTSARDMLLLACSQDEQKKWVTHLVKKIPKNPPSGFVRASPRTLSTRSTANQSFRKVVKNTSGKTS
# Experimental: (§1) Following the pre-incubation, 10 μM ATP was added to initiate the reaction. After 60 minutes at room temperature, Molecular Devices IMAP™ binding solution was added to bind phosphorylated substrate. After 30 minutes of incubation in the presence of the IMAP™ beads, the fluorescence polarization was read and the ratio was reported as mP.
# ROCK2 = molecular target: T2, ROCK2 (Homo sapiens, UniProt O75116); assay: Rho kinase inhibition assay (IMAP fluorescence polarization), ROCK2; type: biochemical; settings: 10 μM ATP, 60 min at room temperature
# T2 construct: purchased Upstate/Chemicon 14-451
# T2 sequence (O75116 whole entry): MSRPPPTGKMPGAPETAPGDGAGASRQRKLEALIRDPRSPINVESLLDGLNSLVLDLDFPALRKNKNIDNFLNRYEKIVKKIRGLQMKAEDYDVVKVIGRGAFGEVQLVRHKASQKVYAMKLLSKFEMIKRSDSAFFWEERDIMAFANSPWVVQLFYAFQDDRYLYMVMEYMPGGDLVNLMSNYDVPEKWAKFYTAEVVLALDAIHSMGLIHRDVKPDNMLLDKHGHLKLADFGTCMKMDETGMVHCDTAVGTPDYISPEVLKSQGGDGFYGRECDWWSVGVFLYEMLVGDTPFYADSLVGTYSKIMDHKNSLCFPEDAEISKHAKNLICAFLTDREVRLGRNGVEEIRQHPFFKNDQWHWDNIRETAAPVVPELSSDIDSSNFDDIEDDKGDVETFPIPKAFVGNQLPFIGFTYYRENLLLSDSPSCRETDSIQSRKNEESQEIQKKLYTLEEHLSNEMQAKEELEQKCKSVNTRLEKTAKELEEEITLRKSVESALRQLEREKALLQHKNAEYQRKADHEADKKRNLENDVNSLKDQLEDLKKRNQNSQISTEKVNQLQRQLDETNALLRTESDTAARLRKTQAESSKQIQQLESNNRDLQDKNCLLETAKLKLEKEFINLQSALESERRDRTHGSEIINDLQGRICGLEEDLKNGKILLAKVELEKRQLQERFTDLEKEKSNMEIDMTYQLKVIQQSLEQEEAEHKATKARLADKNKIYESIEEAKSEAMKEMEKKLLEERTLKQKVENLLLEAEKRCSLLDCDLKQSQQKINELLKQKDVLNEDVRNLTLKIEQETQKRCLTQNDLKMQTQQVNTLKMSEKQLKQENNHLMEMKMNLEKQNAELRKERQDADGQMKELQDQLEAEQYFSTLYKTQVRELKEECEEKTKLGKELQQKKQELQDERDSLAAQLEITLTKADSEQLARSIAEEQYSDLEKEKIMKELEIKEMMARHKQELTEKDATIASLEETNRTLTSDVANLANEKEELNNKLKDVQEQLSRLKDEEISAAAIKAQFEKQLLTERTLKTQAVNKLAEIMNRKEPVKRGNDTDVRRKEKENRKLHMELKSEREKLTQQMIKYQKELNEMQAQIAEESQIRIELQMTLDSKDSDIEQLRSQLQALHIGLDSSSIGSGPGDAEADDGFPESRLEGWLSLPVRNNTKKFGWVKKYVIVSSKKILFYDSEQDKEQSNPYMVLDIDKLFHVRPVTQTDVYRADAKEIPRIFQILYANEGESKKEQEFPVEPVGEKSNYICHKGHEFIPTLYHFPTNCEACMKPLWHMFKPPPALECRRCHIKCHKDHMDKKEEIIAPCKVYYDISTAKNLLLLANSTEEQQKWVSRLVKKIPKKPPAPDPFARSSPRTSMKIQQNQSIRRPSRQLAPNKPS
# Experimental: as §1, with “(Molecular Devices product number R7184) was pre-incubated with a test compound for 5 minutes in buffer containing 10 mM Tris-HCl pH 7.2, 10 mM MgCl2, and 0.1% BSA. Following” for “Following”
# See Tian et al., Arch. Ophthalmol. […] Ophthalmol. Vis. […] Ophthalmol. […] Cytoskel. […] Ophthalmol. Vis. […] Ophthalmol. Vis.
# [1] = Ocular surface and aqueous humor bioavailability; type: in vivo, New Zealand White rabbits; settings: New Zealand White, rabbit, topical, 30 μl of 1 mM (0.04% w/v) per eye
# Experimental: Dose Formulation and Administration. Compounds 14 (prodrug) and 49 (base compound) were formulated at 0.04% w/v (the equivalent millimolar concentration is 1 mM) in 10 mM phosphate, 0.8% polysorbate 80, 0.85% NaCl, 0.01% BAC, 0.1% EDTA at pH 7.3. Each compound was administered as a 30 μl drop to both eyes of each animal within a dosing group and the ocular and systemic exposure was examined as described in Example 49.
# Study sampling. 40 μL of saline was applied to the eyes at 0.083, 1, 2, and 4 hours after administration of each compound and the lavage fluids were collected as samples. Aqueous humor and ocular surface samples were obtained from 2 animals (4 eyes) per dosing group at 0.083, 1, 2, and 4 hours post dosing, by the methods described in Example 49. Ocular surface relates to the surface of the cornea and conjunctiva. Ocular surface residence time is the average time that a compound resides on the ocular surface.
# [2] = 10 μM ATP, 60 min at room temperature, read-out: ROCK1 IC50
# [3] = ocular surface (saline lavage fluid)
Molecule,IC50 (ROCK1; [2]),IC50 (ROCK2),IC50 (ROCK1),other results
"CC(C)CC(=O)OCCOc1cccc(CN2CC[C@@H](Nc3cccc4cnccc34)C2)c1 [Compound 18, 2-(3-((((R)-3-(isoquinolin-5-ylamino)pyrrolidin-1-yl)methyl)phenoxy)ethyl 3-methylbutanoate)]",3820 nM,1490 nM,,
"CC1(C(=O)OCCOc2cccc(CN3CC[C@@H](Nc4cccc5cnccc45)C3)c2)CC1 [Compound 19, 2-(3-(((R)-3-(isoquinolin-5-ylamino)pyrrolidin-1-yl)methyl)phenoxy)ethyl 1-methylcyclopropanecarboxylate]",3060 nM,1050 nM,,
"CC(C)(C)C(=O)OCCOc1cccc(CN2CC[C@@H](Nc3cccc4cnccc34)C2)c1 [Compound 20, 2-(3-(((R)-3-(isoquinolin-5-ylamino)pyrrolidin-1-yl)methyl)phenoxy)ethyl pivalate]",4810 nM,1770 nM,,
"O=C(OCCOc1cccc(CN2CC[C@@H](Nc3cccc4cnccc34)C2)c1)c1cccnc1 [Compound 21, 2-(3-(((R)-3-(isoquinolin-5-ylamino)pyrrolidin-1-yl)methyl)phenoxy)ethyl nicotinate]",1910 nM,512 nM,,
"CC(=O)Nc1ccc(CN2CCC(Nc3cccc4cnccc34)C2)cc1 (stereo not drawn) [Compound 25, N-(4-((3-(isoquinolin-5-ylamino)pyrrolidin-1-yl)methyl)phenyl)acetamide]",,2300 nM,,
"Cc1ccc(CN2CCC[C@@H](Nc3ccc4[nH]ncc4c3)C2)cc1OCCOC(=O)c1ccccc1 [Compound 26, 2-(5-(((R)-3-(1H-indazol-5-ylamino)piperidin-1-yl)methyl)-2-methylphenoxy)ethyl benzoate]",6060 nM,621 nM,,
"CC(=O)NCCOc1cccc(CN2CCC[C@@H](Nc3ccc4[nH]ncc4c3)C2)c1 [Compound 29, N-(2-(3-(((R)-3-(1H-indazol-5-ylamino)piperidin-1-yl)methyl)phenoxy)ethyl) acetamide]",,987 nM,5160 nM,
"CC(=O)NCCOc1cccc(CN2CCC[C@H](Nc3ccc4[nH]ncc4c3)C2)c1 [Compound 30, N-(2-(3-(((S)-3-(1H-indazol-5-ylamino)piperidin-1-yl)methyl)phenoxy)ethyl) acetamide]",,451 nM,5390 nM,
"O=C(OCCOc1cccc(CN2CCC[C@H](Nc3ccc4[nH]ncc4c3)C2)c1)c1ccccc1 [Compound 31, 2-(3-(((S)-3-(1H-indazol-5-ylamino)piperidin-1-yl)methyl)phenoxy)ethyl benzoate]",,1230 nM,5650 nM,
"O=C(OCCOc1cccc(CN2CCC[C@@H](Nc3ccc4[nH]ncc4c3)C2)c1)c1ccccc1 [Compound 32, 2-(3-((R)-3-(1H-indazol-5-ylamino)piperidin-1-yl)methyl)phenoxy)ethyl benzoate]",,3020 nM,7080 nM,
"CCOC(=O)c1ccc(CN2CCC[C@@H](Nc3ccc4[nH]ncc4c3)C2)cc1 [Compound 44, Ethyl 4-(((R)-3-(1H-indazol-5-ylamino)piperidin-1-yl)methyl)benzoate]",,6190 nM,117000 nM,
"CCOC(=O)c1ccc(CN2CCC[C@H](Nc3ccc4[nH]ncc4c3)C2)cc1 [Compound 45, Ethyl 4-(((S)-3-(1H-indazol-5-ylamino)piperidin-1-yl)methyl)benzoate]",,6180 nM,45500 nM,
"Cc1ccc(CN2CC[C@@H](Nc3cccc4cnccc34)C2)cc1OCCO [Compound 49, [2-(5-(((R)-3-(isoquinolin-5-ylamino)pyrrolidin-1-yl)methyl)-2-methylphenoxy)]ethanol]",,,4.1 nM,"concentration at 1 h ([1]; aqueous humor): 93.9 nM; concentration at 2 h ([1]; aqueous humor): 24 nM; concentration at 4 h ([1]; aqueous humor): 3.4 nM; concentration at 1 h [1, 3]: 846 nM; concentration at 2 h [1, 3]: 893 nM; concentration at 4 h [1, 3]: 65.7 nM"
tent-Butyl (3-((3-(1H-indazol-5-ylamino)piperidin-1-yl)methyl)phenyl)methyl carbamate [Compound 40],,6590 nM,,
tert-Butyl (4-(((S)-3-(1H-indazol-5-ylamino)piperidin-1-yl)methyl)phenyl) methylcarbamate [Compound 43],25400 nM,4000 nM,,

# Further molecules by falling IC50 (ROCK2), results first:
IC50 (ROCK1; [2]),IC50 (ROCK2),IC50 (ROCK1),Molecule,other results
1220 nM,369 nM,,"CCOC(=O)OCCOc1cccc(CN2CC[C@@H](Nc3cccc4cnccc34)C2)c1 [Compound 17, 2-(3-(((R)-3-(isoquinolin-5-ylamino)pyrrolidin-1-yl)methyl)phenoxy)ethyl ethyl carbonate]",
,341 nM,2420 nM,"CC(=O)NCc1cccc(CN2CCC[C@@H](Nc3ccc4[nH]ncc4c3)C2)c1 [Compound 42, N-((3-(((R)-3-(1H-indazol-5-ylamino)piperidin-1-yl)methyl)phenyl)methyl) acetamide]",
,251 nM,3440 nM,"CC(C)(C)OC(=O)COc1cccc(CN2CCC[C@H](Nc3ccc4[nH]ncc4c3)C2)c1 [Compound 27, tert-Butyl 2-(3-(((S)-3-(1H-indazol-5-ylamino)piperidin-1-yl)methyl)phenoxy) acetate]",
,155 nM,1010 nM,"O=C(COc1cccc(CN2CCC[C@@H](Nc3ccc4[nH]ncc4c3)C2)c1)Nc1cccnc1 [Compound 33, 2-(3-(((R)-3-(1H-indazol-5-ylamino)piperidin-1-yl)methyl)phenoxy)-N-(pyridin-3-yl)acetamide]",
,109 nM,1030 nM,CCOC(=O)COc1cccc(CN2CCC[C@H](Nc3ccc4[nH]ncc4c3)C2)c1 [Compound 28],
,102 nM,1280 nM,"O=C(COc1cccc(CN2CCC[C@@H](Nc3ccc4[nH]ncc4c3)C2)c1)N1CCOCC1 [Compound 34, 2-(3-(((R)-3-(1H-indazol-5-ylamino)piperidin-1-yl)methyl)phenoxy)-1-morpholinoethanone]",
,87 nM,,"CCOC(=O)COc1cccc(CN2CCCC(Nc3ccc4[nH]ncc4c3)C2)c1 (stereo not drawn) [Compound 41, Ethyl 2-(3-((3-(1H-indazol-5-ylamino)piperidin-1-yl)methyl)phenoxy)acetate]",
,6.7 nM,19 nM,"OCCOc1cccc(CN2CC[C@@H](Nc3cccc4cnccc34)C2)c1 [Compound 48, 2-(3-(((R)-3-(isoquinolin-5-ylamino)pyrrolidin-1-yl)methyl)phenoxy)ethanol]",
